From patent US20250090514A1, “METHOD OF TREATING CANCER” (Laekna Limited, priority 2019, published 2025)
Read-outs that look alike come from different tables or passages of the source.

Legend:
[1] = tested on: metastatic castration-resistant prostate cancer (mCRPC) patients; settings: cited from earlier work
[2] = tested on: aldosterone synthesis; assay: Example C: aldosterone level and hyperaldosteronism; format: in vivo, human
Description: Hyperaldosteronism is a disorder with several serious clinical symptoms including hypertension, hypokalemia, fatigue, headache, muscle weakness and numbness.

[3] = Body weight and tolerability in the Mini-PDX study; format: in vivo
Experimental: During the study, the care and use of animals were conducted in accordance with the regulations of the Association for Assessment and Accreditation of Laboratory Animal Care (AAALAC). After Mini-PDX device inoculation, the animals were checked daily for morbidity and mortality. At the time of routine monitoring, the animals were checked for any effects of treatments on normal behavior such as mobility, visual estimation of food and water consumption, body weight gain/loss, eye/hair matting and any other abnormal effect.
The body weight of mice was measured every day, and relative change of bodyweight was calculated for each mouse according to the following formula: RCBW(%)=(BWi−BW0)/BW0×100, BWi is the body weight after treatment on a given day, BW0 is the bodyweight on the first day of treatment.

SMILES | unconfirmed rate of ≥50% PSA decline from baseline ([1]; chemotherapy-naive mCRPC patients (32 of 124)) [%] | unconfirmed rate of ≥50% PSA decline from baseline ([1]; mCRPC patients with previous chemotherapy (16 of 57)) [%] | aldosterone level vs baseline ([2]; baseline to Day 1 of Cycle 3, except Day 1 of Cycle 2 (similar to baseline), combination therapy) | clinical symptoms of hyperaldosteronism ([2]; during treatment with the combination therapy) | tolerability in the animals ([3]; afuresertib 75 mg/kg, CFG920 300 mg/kg) | Average RCBW (%)/Day 6 ([3]; relative change of body weight from day 0, afuresertib 75 mg/kg QD, CFG920 300 mg/kg BID) [%]
Cc1ccncc1N1CCN(c2ccnc(Cl)c2)C1=O [CFG920, 1-(2-chloro-pyridin-4-yl)-3-(4-methyl-pyridin-3-yl)-imidazolidin-2-one] | 26 | 28 | lower than the baseline level | did not cause any clinical symptoms of hyperaldosteronism |  | 
Cn1ncc(Cl)c1-c1cc(C(=O)N[C@H](CN)Cc2cccc(F)c2)sc1Cl [afuresertib, N-{(1S)-2-amino-1-[(3-fluorophenyl)methyl]ethyl}-5-chloro-4-(4-chloro-1-methyl-1H-pyrazol-5-yl)-2-thiophenecarboxamide] |  |  |  |  | tolerated well | −8.73
